The values that follow are results of earlier work, collected in patent publication US8372434B2, “Ophthalmic oil-in-water type emulsion with stable positive zeta potential” (Novagali Pharma SA, priority 2004, dated 2013).

The conditions of this series: at 0.1% or 0.3% w/v.

For the molecule `CCCCCCCC/C=C\CCCCCCCCN` [oleylamine], the “safety for ocular administration” value is given as “safe for ocular administration”.
Regarding `CCCCCCCCCCCCCCCCCCN` [stearylamine], the “safety for ocular administration” value is reported as “safe for ocular administration”.
